Patent US20110150980A1, “CGRP ANALOG” (VasoGenix Pharmaceuticals, Inc., priority 2009, published 2011)

Legend:
[1] = system: non-sedated, non-naïve cynomolgus monkeys; experiment: Intravenous infusion in non-sedated, telemeterized non-human primates: blood pressure, heart rate, ECG (Example 2); type: in vivo
Protocol: Peptides were synthesized as in Example 1. […] Two non-naïve, telemeterized, male non-human primates (NHP “a” and “b”) were used for the test article(s) dosing regimen. […] Following a stabilized baseline period of approximately 30 minutes, one of the test article(s) was administered as an intravenous infusion via a femoral vein vascular access port (VAP) using a Pegasus PCA infusion pump for a period of 30 or 60 minutes. A minimum period of 30 minutes was allotted for the hemodynamic parameters to return to baseline prior to the next test article infusion dose. The process was repeated for each of the stated test articles. The same procedure was followed for the 1 hour infusion with 1 hour allotted for parameters to return to base line.
The non-human primates were previously surgically prepared with telemetry transducers, type TL11M2-D70-PCT (Data Sciences International). The acquisition and analysis was done using a Ponemah (Version 4.8 or higher) data acquisition and analysis system installed on the hard drive of a computer. The computer was equipped with disk drive for file back up on readable write-once only optical media (CD-R or DVD-R).
Prior to the first dose administration, baseline data was acquired. For each subsequent dose, data was collected for approximately 30 min postdose. Prior to the next dose, the hemodynamic parameters were allowed to return to a stable baseline±10%.
Systolic blood pressure (SYS or SBP), diastolic blood pressure (DBP), mean arterial pressure (MAP), heart rate (HR), and all lead II ECG variables were recorded. The telemetry data files were transferred to an Excel (MicroSoft® Version 2003) spreadsheet. The following variables from the lead II ECG were measured: PR interval, QRS duration, QT interval, RR interval, and QTcF interval (calculated as
A visual inspection of the entire collected ECG waveform for disturbances in rhythm and waveform morphology was performed. The data for selected time points were analyzed and assessed on completion of data acquisition and were the average of at least 30 beats (ABP and ECG) of data at the selected analysis time, when possible. The time points for both hemodynamic and ECG data analysis were an initial 30 min baseline prior to the first dose, at a 10 min during each infusion postdose interval relative to end of each infusion, and time points prior to the next test article infusion for each test compound.
Non-human primates were selected because they have the same RAMP 1-CGRP receptor complex as humans.

rats = conditions: 19 ng/kg/min; cited from earlier work
[2] = NHP a, dose day 2, during 30 minute infusions of 0.024 ug/kg/min
[3] = NHP a, dose day 3, during 30 minute infusions of 0.024 ug/kg/min
[4] = NHP a, dose day 3, during 1 hour infusion of 0.024 ug/kg/min
[5] = NHP b, dose day 2, during 30 minute infusions of 0.024 ug/kg/min
[6] = NHP b, dose day 3, during 30 minute infusions of 0.024 ug/kg/min
[7] = NHP b, dose day 3, during 1 hour infusion of 0.024 ug/kg/min
[8] = average of a 2, b 2, a 3, b 3, during 30 minute infusions of 0.024 ug/kg/min
[9] = average of a3, b3, during 1 hour infusion of 0.024 ug/kg/min

## ACNTATCVTHRLAGLLSRSGGMVKSNFVPTNVGSKAF-NH2 [βCGRP]
[1]; 1 hour infusion of 0.024 ug/kg/min, after 30 minutes
  course of heart rate during 1 hour infusion: Heart rate continues to drop after 30 minutes
[1]; [2]
  Percent change in HR, a 2: 1.2%
  Percent change in mean BP, a 2: −8.8%
  Percent change in systolic BP, a 2: −7.4%
[1]; [3]
  Percent change in HR, a 3: −13.6%
  Percent change in mean BP, a 3: −16.8%
  Percent change in systolic BP, a 3: −12.2%
[1]; [4]
  Percent change in HR at 30 minutes, a3: −13.6%
  Percent change in HR at 60 minutes, a3 1 hr: −10.7%
  Percent change in mean systolic BP at 30 minutes, a3: −16.8%
  Percent change in mean systolic BP at 60 minutes, a3 1 hr: 0.0%
  Percent change in systolic BP at 30 minutes, a3: −12.2%
  Percent change in systolic BP at 60 minutes, a3 1 hr: −0.8%
[1]; [5]
  Percent change in HR, b 2: −21.3%
  Percent change in mean BP, b 2: −6.7%
  Percent change in systolic BP, b 2: −8.1%
[1]; [6]
  Percent change in HR, b 3: −22.0%
  Percent change in mean BP, b 3: −23.4%
  Percent change in systolic BP, b 3: −23.2%
[1]; [7]
  Percent change in HR at 30 minutes, b3: −22.0%
  Percent change in HR at 60 minutes, b3 1 hr: −18.1%
  Percent change in mean systolic BP at 30 minutes, b3: −23.4%
  Percent change in mean systolic BP at 60 minutes, b3 1 hr: −10.7%
  Percent change in systolic BP at 30 minutes, b3: −23.2%
  Percent change in systolic BP at 60 minutes, b3 1 hr: −10.1%
[1]; Table 14, NHP a, dose day 2, during 30 minute infusions of 0.024 ug/kg/min
  Percent change in mean HR, a 2: 1.2%
[1]; Table 14, NHP a, dose day 3, during 30 minute infusions of 0.024 ug/kg/min
  Percent change in mean HR, a 3: −13.6%
[1]; Table 14, NHP b, dose day 2, during 30 minute infusions of 0.024 ug/kg/min
  Percent change in mean HR, b 2: −21.3%
[1]; Table 14, NHP b, dose day 3, during 30 minute infusions of 0.024 ug/kg/min
  Percent change in mean HR, b 3: −22.0%
[1]; Table 14, average of a 2, b 2, a 3, b 3, during 30 minute infusions of 0.024 ug/kg/min
  Percent change in mean HR, HR: −13.9%
[1]; Table 24, NHP a, dose day 3, during 1 hour infusion of 0.024 ug/kg/min
  Percent change in mean HR at 30 minutes, a3: −13.6%
[1]; Table 24, NHP b, dose day 3, during 1 hour infusion of 0.024 ug/kg/min
  Percent change in mean HR at 30 minutes, b3: −22.0%
[1]; Table 24, average of a3, b3, during 1 hour infusion of 0.024 ug/kg/min
  Percent change in mean HR at 30 minutes, HR T30: −17.8%
[1]; Table 25, NHP a, dose day 3, during 1 hour infusion of 0.024 ug/kg/min
  Percent change in mean HR at 60 minutes, a3 1 hr: −10.7%
[1]; Table 25, NHP b, dose day 3, during 1 hour infusion of 0.024 ug/kg/min
  Percent change in mean HR at 60 minutes, b3 1 hr: −18.1%
[1]; Table 25, average of a3, b3, during 1 hour infusion of 0.024 ug/kg/min
  Percent change in mean HR at 60 minutes, HR T60: −14.4%
[1]; [8]
  Percent change in HR, HR: −13.9%
  Percent change in mean BP, BP: −13.9%
  Percent change in systolic BP, BP: −12.7%
[1]; [9]
  Percent change in HR at 30 minutes, HR T30: −17.8%
  Percent change in HR at 60 minutes, HR T60: −14.4%
  Percent change in mean systolic BP at 30 minutes, BP T30: −20.1%
  Percent change in mean systolic BP at 60 minutes, BP T60: −5.4%
  Percent change in systolic BP at 30 minutes, T30: −17.7%
  Percent change in systolic BP at 60 minutes, T60: −5.4%
[1]; non-sedated cynomolgus monkeys, IV infusion
  effect on heart rate: maintenance of pre-administration heart rate, and in some cases, reduction in heart rate
rats
  heart rate and blood pressure effect: tachycardia with no significant hypotension
